Reference: US11884647B2, “Compounds and methods for targeting pathogenic blood vessels” (THE REGENTS OF THE UNIVERSITY OF CALIFORNIA, priority 2019, dated 2024)

Test system: tumor endothelial cells (LL/2 lung cancer tumor)
Experiment: Lung LL2 ex vivo model of tumor angiogenesis
Type: cell-based, mouse
Details: Lung LL2 ex vivo; Conc. 20 μm; 48 hrs
Description: This example describes a procedure to prepare a primary tumor angiogenesis model for assessing the efficacy of anti-cancer candidate agents.
1. The day before the experiment, spray all necessary tools with 70% ethanol and sterilize them under UV light overnight, including blade, dissecting and micro-dissecting scissors and […]. Place 24-well dishes at 4° C. to pre-chill plates and thaw Matrigel 24 hours before tumor dissection.
2. Spray 70% ethanol on working bench. Prepare two sterile petri dishes with 10 mL sterile PBS. Steps 3 and 4 are for mouse tumor models. For fresh human tumor, directly go to step 5.
3. Euthanize the tumor-bearing mice. Spray 70% ethanol on the mouse and remove the tumor using sterilized dissecting tools (avoid the fur). Rinse the tumor in petri dish with sterile PBS to remove ethanol and fur. Transfer the tumor to a new petri dish with PBS for dissection. Place the dish on ice.
4. Using pre-chilled sterile pipet tips to seed regular Matrigel in 24 well plates on ice. Matrigel (30 μL) is dropped in the middle of each well without touching the edge of the well (avoid introducing bubbles if possible).
5. Cut the tumor in halves using the sterile blade. Identify and isolate healthy tumor tissue that is not necrotic and is within the tumor capsule. Cut the healthy tumor tissue into small pieces. For instance, a suitable size for the tumor tissue is 0.5 mm (H)×0.5 mm (L)×0.3 mm (D) with a total volume of 0.075 mm^3.
6. Gently transfer and embed each tumor piece in the Matrigel drop in the 24-well plate. Place the embedded piece in the bottom and middle of each Matrigel drop. Keep the plate on ice all the time.
7. After seeding the tumor pieces, plates are incubated in a 37° C. cell culture incubator without medium for 10 minutes in order for the Matrigel to solidify.
8. Endothelial Growth Medium (0.5 mL) is added to each well and incubated at 37° C. with 5% CO2. Wait until the new endothelial cells have grown out of the tumor or are larger than 3 mm in diameter until treatment. This usually takes 4 days for the LL2 Lewis lung cancer model and 7 days for the CT26 colon cancer model. For human tumor models, the growth time is typically 2-3 weeks, depending on the tumor type. Media is changed every 4 days during prolonged culture. Typically, when the tumor tissue grows to 2 mm in diameter, it is good for drug testing. A size of about 3 mm in diameter can make visualization easier.
9. When the assay is ready to be analyzed for cell death (e.g., 48 hours after drug addition), prepare the dye mixture by mixing 6 μL of green dye to stain live cells (5 mg/mL Fluorescein diacetate or FDA in DMSO) with 30 μL of red dye (2.5 mg/mL Propidium iodide or PI in PBS) to stain dead cells in an Eppendorf tube. The FDA dye needs to be stored frozen in a −20° C. freezer because it has a labile ester bond.
10. Add 1 μL of the dye mixture to each well of the 24-well dish. It is usually performed one 24-well dish at a time given the amount of time needed to take pictures (the green dye is not as stable in the cells in the long term).
11. Gently rock the dish a few times to mix the dye with the media in the wells and incubate the dish at 37° C. for 10 min (too long incubation can make the green signal too intense).
12. Wash each well with 0.5 mL of sterile PBS and then add 0.5 mL of phenol red free SFM to each well. Alternatively 0.5 mL of regular Endothelial Cell Growth Media can be added to each well if this well needs to be continuously maintained after the experiment.
13. Look through all wells on an inverted microscope using the 2× objective lens to observe morphological changes.
14. Taking pictures in the red and green channels would allow not only the recording of the result but also more accurate quantitation of the result. To take pictures for all the wells, first pick a well that has robust red and green signals. […]

`CCCCCCCCCCCCCCOc1ccc(S(=O)(=O)c2cnc3ccc([S](C)[O])cc3c2N2CCC(N3CCC(N4CCCC(O)C4)CC3)CC2)cc1` (stereo not shown) [compound 348, 1″-(6-(methyl(λ^1-oxidanyl)-λ^3-sulfanyl)-3-((4-(tetradecyloxy)phenyl)sulfonyl)quinolin-4-yl)-[1,4′:1′,4″-terpiperidin]-3-ol] was tested, and the “48 hrs (morphology observations after 48 hours)” value was “* (50% or less of cells vesicularize in cell shape)”.
With “3-((4-(heptyloxy)phenyl)sulfonyl)-4-(4- (4-(2-mPEGoxyethyl)piperazin-1- yl)piperidin-1-yl)-6- (methylsulfinyl)quinoline [compound 280]” the “48 hrs (morphology observations after 48 hours)” value was “*** (100% of endothelial cells vesicularize in cell shape)”.

Same assay, conditions: Lung LL2 ex vivo; Conc. 20 μm; drug treatment two days

Point of comparison: “3-((4-(heptyloxy)phenyl)sulfonyl)-4-(4- (4-(2-mPEGoxyethyl)piperazin-1- yl)piperidin-1-yl)-6- (methylsulfinyl)quinoline [compound 280]”, Cell death 100%. Against it:
- CCCCCCCCCCCCCCOc1ccc(S(=O)(=O)c2cnc3ccc([S](C)[O])cc3c2N2CCC(N3CCC(N4CCCC(O)C4)CC3)CC2)cc1 (stereo not shown) [compound 348, 1″-(6-(methyl(λ^1-oxidanyl)-λ^3-sulfanyl)-3-((4-(tetradecyloxy)phenyl)sulfonyl)quinolin-4-yl)-[1,4′:1′,4″-terpiperidin]-3-ol] — lower, 20%

Same assay, conditions: Lung LL2 ex vivo; Conc. 40 μm; drug treatment two days

Point of comparison: `CCCCOc1ccc(S(=O)(=O)c2cnc3ccc(SC)cc3c2N2CCC(N3CCCC3CO)CC2)cc1` (stereo not shown) [compound 350, (1-(1-(3-((4-butoxyphenyl)sulfonyl)-6-(methylthio)quinolin-4-yl)piperidin-4-yl)pyrrolidin-2-yl)methanol], Cell death 20%. Against it:
- CCCCOc1ccc(S(=O)(=O)c2cnc3ccc(SC)cc3c2N2CCCN(C3CCS(=O)(=O)CC3)CC2)cc1 [compound 359, 4-(4-(3-((4-butoxyphenyl)sulfonyl)-6-(methylthio)quinolin-4-yl)-1,4-diazepan-1-yl)tetrahydro-2H-thiopyran 1,1-dioxide] — the same, 20%
- CCc1ccc(S(=O)(=O)c2cnc3ccc(OC)cc3c2NN2CCN(C)CC2)cc1 [compound 83, 3-((4-ethylphenyl)sulfonyl)-6-methoxy-N-(4-methylpiperazin-1-yl)quinolin-4-amine] — the same, 20%

Same assay, conditions: Mus musculus, Endothelial cell, 48 h, read-out: Cell death

Point of comparison: `CCCCCCCCCCCCCCOc1ccc(S(=O)(=O)c2cnc3ccc([S+](C)[O-])cc3c2N2CCC(N3CCC(N4CCCC(O)C4)CC3)CC2)cc1F` (stereo not shown) [compound 367, 1″-(3-((3-fluoro-4-(tetradecyloxy)phenyl)sulfonyl)-6-(methylsulfinyl)quinolin-4-yl)-[1,4′:1′,4″- terpiperidin]-3-ol], cytotoxicity at 20 µM 5%. Against it:
- CCc1ccc(S(=O)(=O)c2cnc3ccc(OC(F)(F)F)cc3c2N2CCC(N(CC)CC)CC2)cc1 [compound 103, N,N-diethyl-1-(3-((4-ethylphenyl)sulfonyl)-6-(trifluoromethoxy)quinolin-4-yl)piperidin-4-amine] — higher, 10%
- CCCCCCCCCCCCOc1ccc(S(=O)(=O)c2cnc3ccc([S+](C)[O-])cc3c2N2CCC(N3CCC(N4CCCC(O)C4)CC3)CC2)cc1 (stereo not shown) [compound 343, 1″-(3-((4-(dodecyloxy)phenyl)sulfonyl)-6-(methylsulfinyl)quinolin-4-yl)-[1,4′:1′,4″-terpiperidin]-3-ol] — higher, 50%
- CCCCCCCOc1ccc(S(=O)(=O)c2cnc3ccc(SC)cc3c2N2CCC(N3CCC(N4CCCCC4)CC3)CC2)cc1 [compound 251, 4-([1,4′:1′,4″-terpiperidin]-1″-yl)-3-((4-(heptyloxy)phenyl)sulfonyl)-6-(methylthio)quinoline] — higher, 60%
- CCCCCCCCCCCCOc1ccc(S(=O)(=O)c2cnc3ccc([S+](C)[O-])cc3c2N2CCC(N3CCN(CCO)CC3)CC2)cc1F (stereo not shown) [compound 362, 2-(4-(1-(3-((4-(dodecyloxy)-3-fluorophenyl)sulfonyl)-6-(methylsulfinyl)quinolin-4-yl)piperidin-4-yl)piperazin-1-yl)ethanol] — higher, 20%
- CCc1ccc(S(=O)(=O)c2cnc3ccc(OC(F)(F)F)cc3c2NCCCCO)cc1 [compound 111, 4-((3-((4-ethylphenyl)sulfonyl)-6-(trifluoromethoxy)quinolin-4-yl)amino)butan-1-ol] — higher, 30%
- CCCCCCCOc1ccc(S(=O)(=O)c2cnc3ccc([S+](C)[O-])cc3c2N2CCN(CC3CCN(Cc4ccccc4)CC3)CC2)cc1 (stereo not shown) [compound 279, 4-(4-((1-benzylpiperidin-4-yl)methyl)piperazin-1-yl)-3-((4-(heptyloxy)phenyl)sulfonyl)-6-(methylsulfinyl)quinoline] — higher, 100%

Point of comparison: `COc1ccc(S(=O)(=O)c2cnc3ccc(OC(F)(F)F)cc3c2NCCO)cc1OC` [compound 73, 2-((3-((3,4-dimethoxyphenyl)sulfonyl)-6-(trifluoromethoxy)quinolin-4-yl)amino)ethan-1-ol], cytotoxicity at 40 µM 10%. Against it:
- COc1ccc(S(=O)(=O)c2cnc3ccc(S(C)(=O)=O)cc3c2NN2CCN(C)CC2)cc1 [compound 228, 3-((4-methoxyphenyl)sulfonyl)-N-(4-methylpiperazin-1-yl)-6-(methylsulfonyl)quinolin-4-amine] — lower, 5%
- CCCCOc1ccc(S(=O)(=O)c2cnc3ccc(OC(F)(F)F)cc3c2N2CC[S+]([O-])CC2)cc1 [compound 197, 4-(3-((4-butoxyphenyl)sulfonyl)-6-(trifluoromethoxy)quinolin-4-yl)thiomorpholine 1-oxide] — higher, 20%
- CNC(=O)c1ccc2ncc(S(=O)(=O)c3ccc(OC)cc3)c(N3CCC(N4CCCC4CO)CC3)c2c1 (stereo not shown) [compound 336, 4-(4-(2-(hydroxymethyl)pyrrolidin-1-yl)piperidin-1-yl)-3-((4-methoxyphenyl)sulfonyl)-N-methylquinoline-6-carboxamide] — lower, 0%
- CCCCOc1ccc(S(=O)(=O)c2cnc3ccc(C(=O)OCC)cc3c2N2CCC(N3CCCC(O)C3)CC2)cc1 (stereo not shown) [compound 177, ethyl 3-((4-butoxyphenyl)sulfonyl)-4-(3-hydroxy-[1,4′-bipiperidin]-1′-yl)quinoline-6-carboxylate] — higher, 100%
- CCCCOc1ccc(S(=O)(=O)c2cnc3ccc([S+](C)[O-])cc3c2N2CCC(N3CCC(N4CCCCC4)CC3)CC2)cc1 (stereo not shown) [compound 237, 4-([1,4′:1′,4″-terpiperidin]-1″-yl)-3-((4-butoxyphenyl)sulfonyl)-6-(methylsulfinyl)quinoline] — higher, 100%
- CCCCOc1ccc(S(=O)(=O)c2cnc3ccc(SC)cc3c2N2CCC(N3CCC(N4CCCCC4)CC3)CC2)cc1 [compound 231, 4-([1,4′:1′,4″-terpiperidin]-1″-yl)-3-((4-butoxyphenyl)sulfonyl)-6-(methylthio)quinoline] — higher, 100%
- CCOC(=O)c1ccc2ncc(S(=O)(=O)c3ccc(OC)cc3)c(N3CCC(N4CCC(CO)CC4)CC3)c2c1 [compound 175, ethyl 4-(4-(hydroxymethyl)-[1,4′-bipiperidin]-1′-yl)-3-((4-methoxyphenyl)sulfonyl)quinoline-6-carboxylate] — higher, 30%

Point of comparison: `CC(C)CCCC(C)CCOc1ccc(S(=O)(=O)c2cnc3ccc([S+](C)[O-])cc3c2N2CCC(N3CCN(CCO)CC3)CC2)cc1` (stereo not shown) [compound 284, 2-(4-(1-(3-((4-((3,7-dimethyloctyl)oxy)phenyl)sulfonyl)-6-(methylsulfinyl)quinolin-4-yl)piperidin-4-yl)piperazin-1-yl)ethan-1-ol], cytotoxicity at 10 µM 10%. Against it:
- CCCCCCCCCCOc1ccc(S(=O)(=O)c2cnc3ccc([S+](C)[O-])cc3c2N2CCC(N3CCC(N4CCCC(O)C4)CC3)CC2)cc1 (stereo not shown) [compound 288, 1″-(3-((4-(decyloxy)phenyl)sulfonyl)-6-(methylsulfinyl)quinolin-4-yl)-[1,4′:1′,4″- terpiperidin]-3-ol] — higher, 50%
- CCCCCCCCCCOc1ccc(S(=O)(=O)c2cnc3ccc([S+](C)[O-])cc3c2N2CCC(N3CCC(N4CCN(C)CC4)CC3)CC2)cc1 (stereo not shown) [compound 285, 3-((4-(decyloxy)phenyl)sulfonyl)-4-(4-(4-methylpiperazin-1-yl)-[1,4′-bipiperidin]-1′-yl)-6-(methylsulfinyl)quinoline] — higher, 60%
